Values belong to the compound of their own block, whether it stands above or below them. Non-standard residues stand in square brackets, D forms with d. Residues, ends and D or L forms follow the SMILES beside them. *: point of attachment. Ala(cPent) = N[C@@H](CC1CCCC1)C(=O)O; Cbz = O=C(OCc1ccccc1)*
Experiments:
[1] = Inhibition of Wnt/beta-catenin signaling pathway in mouse L Wnt-3A cells harbouring STF-reporter gene assessed as assessed as reduction in luciferase activity incubated for 24 hrs by luciferase reporter assay; type: cell-based
SW480 = assay: Anticancer activity against human SW480 cells assessed as reduction in cell viability; type: functional, cell-based
HCT-116 [2] = assay: Antiproliferative activity against human HCT-116 cells assessed as reduction in cell proliferation incubated for 72 hrs by MTS assay; type: functional, cell-based; settings: HCT-116, 72 h
HCT-116 [3] = assay: Anticancer activity against human HCT-116 cells assessed as reduction in cell viability; type: functional, cell-based
[4] = target: T1, 7-dehydrocholesterol reductase (Homo sapiens, UniProt Q9UBM7); assay: Inhibition of DHCR7 (unknown origin)
T1 sequence (Q9UBM7 whole entry): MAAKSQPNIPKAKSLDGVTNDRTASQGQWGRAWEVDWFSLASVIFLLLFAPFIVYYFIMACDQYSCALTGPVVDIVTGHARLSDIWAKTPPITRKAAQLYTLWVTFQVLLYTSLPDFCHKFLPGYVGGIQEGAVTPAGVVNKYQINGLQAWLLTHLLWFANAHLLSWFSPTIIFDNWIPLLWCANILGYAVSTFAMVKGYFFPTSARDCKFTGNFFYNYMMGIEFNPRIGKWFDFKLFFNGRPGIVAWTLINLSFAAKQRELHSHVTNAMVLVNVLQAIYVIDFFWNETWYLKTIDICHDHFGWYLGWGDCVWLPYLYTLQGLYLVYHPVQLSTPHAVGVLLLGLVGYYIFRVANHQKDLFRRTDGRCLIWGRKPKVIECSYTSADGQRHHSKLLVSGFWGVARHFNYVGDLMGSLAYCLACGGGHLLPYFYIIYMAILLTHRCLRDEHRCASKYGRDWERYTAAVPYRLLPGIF

[5] = target: 3-beta-hydroxysteroid-Delta(8),Delta(7)-isomerase (Homo sapiens, UniProt Q15125); assay: Inhibition of EBP (unknown origin)
3-beta-hydroxysteroid-Delta(8),Delta(7)-isomerase, sequence (Q15125 whole entry): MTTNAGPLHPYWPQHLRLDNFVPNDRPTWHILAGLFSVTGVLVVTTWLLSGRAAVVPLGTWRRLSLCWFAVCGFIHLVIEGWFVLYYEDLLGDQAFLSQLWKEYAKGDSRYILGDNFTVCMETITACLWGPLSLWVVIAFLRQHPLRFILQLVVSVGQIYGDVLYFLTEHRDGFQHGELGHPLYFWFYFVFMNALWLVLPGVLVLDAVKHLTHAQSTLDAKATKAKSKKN

DNA polymerase beta = DNA polymerase beta (Homo sapiens, UniProt P06746); assay: Inhibition of human DNA polymerase beta using 32P-labeled 63-mer F-DNA substrate preincubated for 5 mins followed by substrate addition and measured after 45 mins by autoradiography
[6] = target: T2, Adenomatous polyposis coli protein (Homo sapiens, UniProt P25054); assay: Inhibition of APC (303 to 739 residues) (unknown origin) preincubated for 60 mins followed by substrate addition and measured after 60 mins using Ac-GGGGEQLAINELISDGK-FITC as substrate by fluorescence polarization assay
T2 sequence (P25054 whole entry, the tested form may be a part): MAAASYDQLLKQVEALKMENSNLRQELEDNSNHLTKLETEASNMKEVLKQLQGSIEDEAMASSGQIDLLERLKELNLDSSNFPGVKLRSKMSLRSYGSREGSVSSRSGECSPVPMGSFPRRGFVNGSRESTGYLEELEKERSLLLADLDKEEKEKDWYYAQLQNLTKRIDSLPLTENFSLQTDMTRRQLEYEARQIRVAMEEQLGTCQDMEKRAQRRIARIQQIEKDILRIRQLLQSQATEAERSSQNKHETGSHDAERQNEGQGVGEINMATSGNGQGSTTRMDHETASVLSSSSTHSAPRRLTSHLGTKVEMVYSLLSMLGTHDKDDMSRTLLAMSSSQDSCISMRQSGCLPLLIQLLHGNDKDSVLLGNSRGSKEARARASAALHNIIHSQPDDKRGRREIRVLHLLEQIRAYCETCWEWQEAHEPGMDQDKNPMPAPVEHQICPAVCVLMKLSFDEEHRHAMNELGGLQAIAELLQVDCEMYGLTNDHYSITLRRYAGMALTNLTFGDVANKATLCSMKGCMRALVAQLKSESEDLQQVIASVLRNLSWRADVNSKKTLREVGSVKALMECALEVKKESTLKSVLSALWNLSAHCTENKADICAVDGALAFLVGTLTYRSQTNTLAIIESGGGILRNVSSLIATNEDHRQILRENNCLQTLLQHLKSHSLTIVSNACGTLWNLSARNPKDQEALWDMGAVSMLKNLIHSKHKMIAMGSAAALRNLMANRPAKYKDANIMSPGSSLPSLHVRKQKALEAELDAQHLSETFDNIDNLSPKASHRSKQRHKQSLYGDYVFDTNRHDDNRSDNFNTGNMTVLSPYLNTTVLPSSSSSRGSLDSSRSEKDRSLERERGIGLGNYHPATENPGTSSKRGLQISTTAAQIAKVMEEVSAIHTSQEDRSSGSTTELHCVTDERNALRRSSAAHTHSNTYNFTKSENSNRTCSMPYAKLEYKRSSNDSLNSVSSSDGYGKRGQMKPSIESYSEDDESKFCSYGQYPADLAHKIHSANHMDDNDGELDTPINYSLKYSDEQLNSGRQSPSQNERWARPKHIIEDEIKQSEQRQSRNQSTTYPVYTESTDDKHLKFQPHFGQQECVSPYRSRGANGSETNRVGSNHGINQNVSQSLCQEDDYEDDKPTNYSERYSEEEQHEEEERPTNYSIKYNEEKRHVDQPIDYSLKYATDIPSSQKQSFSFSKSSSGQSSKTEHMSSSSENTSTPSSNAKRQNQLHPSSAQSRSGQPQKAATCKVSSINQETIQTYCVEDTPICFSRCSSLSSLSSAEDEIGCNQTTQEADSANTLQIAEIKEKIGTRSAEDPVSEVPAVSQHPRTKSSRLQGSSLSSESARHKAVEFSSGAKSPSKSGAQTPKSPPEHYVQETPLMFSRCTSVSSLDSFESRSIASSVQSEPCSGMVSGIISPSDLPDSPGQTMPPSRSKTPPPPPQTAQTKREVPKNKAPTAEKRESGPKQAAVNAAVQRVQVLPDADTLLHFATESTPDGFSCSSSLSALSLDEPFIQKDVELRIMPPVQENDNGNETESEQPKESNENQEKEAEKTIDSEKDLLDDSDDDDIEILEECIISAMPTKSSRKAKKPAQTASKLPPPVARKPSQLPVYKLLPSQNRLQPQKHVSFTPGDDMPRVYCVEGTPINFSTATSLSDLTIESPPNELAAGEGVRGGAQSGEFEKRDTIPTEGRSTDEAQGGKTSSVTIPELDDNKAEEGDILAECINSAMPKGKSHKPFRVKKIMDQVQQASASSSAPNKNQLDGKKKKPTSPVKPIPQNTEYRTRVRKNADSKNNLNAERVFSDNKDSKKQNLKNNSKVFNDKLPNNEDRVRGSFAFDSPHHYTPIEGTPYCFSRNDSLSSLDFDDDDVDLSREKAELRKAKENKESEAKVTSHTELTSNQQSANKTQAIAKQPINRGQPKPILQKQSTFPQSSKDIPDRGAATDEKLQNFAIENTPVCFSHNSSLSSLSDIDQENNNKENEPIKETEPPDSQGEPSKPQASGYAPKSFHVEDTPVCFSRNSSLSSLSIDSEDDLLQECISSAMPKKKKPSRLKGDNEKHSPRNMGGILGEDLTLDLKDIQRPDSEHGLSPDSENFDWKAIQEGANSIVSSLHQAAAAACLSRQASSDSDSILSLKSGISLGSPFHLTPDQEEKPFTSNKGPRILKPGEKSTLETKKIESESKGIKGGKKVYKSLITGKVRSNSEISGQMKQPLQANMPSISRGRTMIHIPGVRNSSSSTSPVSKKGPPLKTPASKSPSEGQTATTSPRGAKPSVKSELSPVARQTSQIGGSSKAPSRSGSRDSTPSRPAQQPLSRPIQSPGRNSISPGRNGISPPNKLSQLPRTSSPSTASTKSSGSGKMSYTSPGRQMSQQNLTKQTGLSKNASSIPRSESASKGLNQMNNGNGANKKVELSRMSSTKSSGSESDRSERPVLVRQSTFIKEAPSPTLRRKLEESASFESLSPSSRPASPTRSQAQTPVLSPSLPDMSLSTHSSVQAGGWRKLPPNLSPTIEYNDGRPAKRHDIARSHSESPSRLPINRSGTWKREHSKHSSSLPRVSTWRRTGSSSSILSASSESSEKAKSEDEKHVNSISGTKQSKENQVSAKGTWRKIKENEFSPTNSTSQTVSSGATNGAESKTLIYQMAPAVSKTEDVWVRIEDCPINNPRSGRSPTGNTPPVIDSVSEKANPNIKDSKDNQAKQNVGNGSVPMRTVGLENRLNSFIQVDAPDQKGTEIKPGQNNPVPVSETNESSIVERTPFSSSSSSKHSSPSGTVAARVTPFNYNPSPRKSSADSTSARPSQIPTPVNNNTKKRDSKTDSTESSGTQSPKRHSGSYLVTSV

[7] = target: T2, Adenomatous polyposis coli protein; assay: Inhibition of APC (303 to 739 residues) (unknown origin) assessed as inhibition constant preincubated for 60 mins followed by substrate addition and measured after 60 mins using Ac-GGGGEQLAINELISDGK-FITC as substrate by fluorescence polarization assay

IC50 [1]: 58 nM
Compound: COc1ccc(-n2nc(C(=O)NCC(=O)Nc3nc4ccc(OC)cc4s3)c3ccccc3c2=O)cc1

IC50 (SW480): 690 nM
Compound: O=C1Nc2ccccc2C12OCC1(CO2)COC2(OC1)C(=O)Nc1ccccc12 (stereo not given)

IC50 (HCT-116 [2]): 780 nM
Compound: CCCC(=O)c1cc2c(c(O)c1C)C(=O)C(=O)c1c(O)cccc1-2

IC50 (SW480): 15 nM | IC50 (HCT-116 [3]): 8 nM
Compound: CN1CCN(S(=O)(=O)c2ccc(N3CCCC3=O)cc2)c2ccccc21

IC50 [4]: 1390 nM | IC50 [5]: 9.36 nM
Compound: Cc1cc(C)c(S(=O)(=O)N2CCC(N3CCCCCC3)CC2)c(C)c1

IC50 (HCT-116 [3]): 580 nM
Compound: COC(=O)c1cccc(NS(=O)(=O)c2ccc(C)cc2)c1

Compound: COc1c(C[C@@H](C)OC(=O)c2c(C)cc(O)cc2O)c2c3c(C[C@@H](C)OC(=O)c4c(C)cc(O)cc4O)c(OC)c(=O)c4c(O)cc(OC)c(c5c(OC)cc(O)c(c1=O)c52)c43
IC50 (HCT-116 [2]): 3600 nM

IC50 (SW480): 10800 nM | IC50 (HCT-116 [3]): 28800 nM
Compound: CCOC(=O)C[C@H](NC(=O)[C@H](Cc1c[nH]c2ccccc12)NC(=O)Cc1cc2cc(C)ccc2[nH]1)C(=O)N[C@@H](CCC(=O)O)C(=O)OC

IC50 (DNA polymerase beta): < 50000 nM
Compound: Cc1cc(SC(=O)O)c(S(=O)(=O)Nc2n[nH]c(Nc3ccccc3)n2)cc1C

IC50 [4]: 2040 nM | IC50 [5]: 188 nM
Compound: Cc1cc(C)c(S(=O)(=O)N2CCC(N3CN4CCC3CC4)CC2)c(C)c1

IC50 (DNA polymerase beta): < 50000 nM
Compound: Cc1cc(C)c(S(=O)(=O)Nc2n[nH]c(Nc3ccccc3)n2)cc1C

IC50 (DNA polymerase beta): < 50000 nM
Compound: Cc1cc(C)c(S(=O)(=O)Nc2n[nH]c(Nc3ccc4ccccc4c3)n2)cc1C

IC50 (HCT-116 [3]): < 50000 nM
Compound: NC1=NC(=O)N(C2CC(O)C(COP(=O)(O)O)O2)C(I)C1 (stereo not given)

IC50 [1]: 25 nM
Compound: Cc1ccc(-n2nc(C(=O)NCC(=O)Nc3nc4ccc(C)cc4s3)c3c(c2=O)SCC3)cc1

IC50 [1]: 27 nM
Compound: Cc1ccc2nc(NC(=O)CNC(=O)c3nn(-c4ccccc4)c(=O)c4c3CCS4)sc2c1

IC50 (DNA polymerase beta): < 50000 nM
Compound: COc1cccc(Nc2nc(NS(=O)(=O)c3cc(C)c(C)cc3C)n[nH]2)c1

IC50 [1]: 40 nM
Compound: COc1ccccc1-n1nc(C(=O)NCC(=O)Nc2nc3ccc(C)cc3s2)c2c(c1=O)SCC2

IC50 [4]: 0.1 nM | IC50 [5]: 49 nM
Compound: Cc1ccc(-c2ccc(S(=O)(=O)N3CCC(N4CCC(C)CC4)CC3)cc2)cc1

Compound: COC(=O)c1c(C)cc2c(c1O)[C@]1(O)C(=O)c3cc4c(c(O)c3C(=O)[C@]1(OC)[C@H](O)C2)C(=O)C=C(N[C@H]1O[C@@H](C)[C@H](OC)[C@@H](O)[C@H]1OC)C4=O
IC50 (HCT-116 [2]): < 150 nM

IC50 [4]: 30 nM | IC50 [5]: < 1000 nM
Compound: CC1CCN(C2CCN(S(=O)(=O)c3ccc(OC(C)C)cc3)CC2)CC1

IC50 [4]: 50000 nM | IC50 [5]: 303 nM
Compound: Cc1cc(C)c(S(=O)(=O)N2CCC([N+]3(C)CCCC3)CC2)c(C)c1

IC50 [4]: 1070 nM | IC50 [5]: 2.95 nM
Compound: Cc1cc(C)c(S(=O)(=O)N2CCC(NCc3ccccc3)CC2)c(C)c1

Compound: Cn1ncnc2c(=O)n(C)c(=O)nc1-2
IC50 (HCT-116 [2]): 2860 nM

IC50 [6]: 1090 nM | Ki [7]: 120 nM
Compound: CC(C)C[C@H](NC(=O)[C@H](C)NC(=O)[C@H](CCC(=O)O)NC(=O)CNC(=O)[C@H](C)NC(=O)OCc1ccccc1)C(=O)N[C@@H](Cc1ccc(O)cc1)C(=O)N[C@@H](CCC(=O)O)C(=O)O (Cbz-AGEALYE-OH)

IC50 [6]: 570 nM | Ki [7]: 15 nM
Compound: C[C@H](NC(=O)OCc1ccccc1)C(=O)NCC(=O)N[C@@H](CCC(=O)O)C(=O)N[C@@H](C)C(=O)N[C@@H](CC1CCCC1)C(=O)N[C@@H](Cc1ccc(O)cc1)C(=O)N[C@@H](CCC(=O)O)C(=O)O (Cbz-AGEA[Ala(cPent)]YE-OH)

Compound: COc1c(C[C@@H](C)OC(=O)Oc2ccc(O)cc2)c2c3c(C[C@@H](C)OC(=O)c4ccccc4)c(OC)c(=O)c4c(O)cc(OC)c(c5c(OC)cc(O)c(c1=O)c52)c43 [CALPHOSTIN C]
IC50 (HCT-116 [2]): 2860 nM

IC50 (HCT-116 [3]): < 50000 nM
Compound: Cn1nnc2c(C(N)=O)ncn2c1=O [TEMOZOLOMIDE]

IC50 [6]: 7970 nM | Ki [7]: 2410 nM
Compound: Ac-AGEALAD-OH

IC50 [6]: 12200 nM | Ki [7]: 3800 nM
Compound: Ac-GGEALAD-OH

IC50 [6]: 10100 nM | Ki [7]: 3120 nM
Compound: Ac-GGEALAW-OH

IC50 [6]: 135000 nM | Ki [7]: 44600 nM
Compound: H-GGEQLAI-OH

From ChEMBL document CHEMBL5226288, “A perspective on medicinal chemistry approaches towards adenomatous polyposis coli and Wnt signal based colorectal cancer inhibitors” (Eur J Med Chem, 2021)
